In the test the target is T1, Human neutrophil elastase (Homo sapiens, UniProt P08246).
T1 construct: purchased Calbiochem 324681
T1 sequence (P08246 30-267): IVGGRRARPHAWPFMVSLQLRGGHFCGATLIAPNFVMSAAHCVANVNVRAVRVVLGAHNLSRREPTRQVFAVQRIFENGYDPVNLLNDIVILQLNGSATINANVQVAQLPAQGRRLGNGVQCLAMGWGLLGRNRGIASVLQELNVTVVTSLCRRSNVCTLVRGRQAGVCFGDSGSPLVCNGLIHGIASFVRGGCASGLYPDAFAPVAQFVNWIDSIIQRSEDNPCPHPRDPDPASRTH
In words: Human Neutrophil Elastase Assay. In kind it is biochemical. The following applies: for IC50: Neutrophil Elastase assay, substrate MeOSuc-Ala-Ala-Pro-Val-AMC 250 μM, 15 min preincubation, 60 min incubation at room temperature, pH 7.5. As to the method:
Human Neutrophil Elastase Assay
All other materials were of the highest grade commercially available.
The following buffers were used: Compound buffer: 100 mM Tris, 500 mM NaCl, adjusted to pH 7.5; Assay buffer: 100 mM Tris, 500 mM NaCl, adjusted to pH 7.5, containing 0.01% BSA.
Assay conditions: Test compounds were prediluted in DMSO and subsequently in compound buffer (5% DMSO final). […] After inactivation of the enzyme, fluorescence intensities were measured at 380 nm excitation and 460 nm emission wavelengths.
Each plate contains wells with a high value control (DMSO+enzyme+substrate) and wells with a low value control (DMSO+inactivated enzyme+substrate). […] Means of low values were taken as 0%, means of high values as 100%.

Here are results for 53 compounds from patent publication USRE46630E1, “Substituted 4-pyridones and their use as inhibitors of neutrophil elastase activity” (Boehringer Ingelheim International GmbH, priority 2012, dated 2017).

Some results are limits rather than exact numbers.

What is called IC50 is the concentration that gives 50% inhibition. Higher therefore signals weaker potency in that assay. `Cc1c(-c2cccc(C(F)(F)F)c2)c(=O)c(C(=O)NCc2ccc(=O)[nH]c2)cn1Cc1ccc(C#N)cc1` [Example 1.42] displayed a concentration for half-maximal inhibition (IC50) of 5.2 nM.

Take `Cc1c(-c2cccc(C(F)(F)F)c2)c(=O)c(C(=O)NCCc2ccccn2)cn1Cc1ccc(C#N)cc1` [Example 1.43]: half-maximal inhibition (IC50) was put at 8.9 nM. Same read-out and setting: with `Cc1c(-c2cccc(C(F)(F)F)c2)c(=O)c(C(=O)NCCc2cccnc2)cn1Cc1ccc(C#N)cc1` [Example 1.44] the figure was 7.9 nM; with `Cc1c(-c2cccc(C(F)(F)F)c2)c(=O)c(C(=O)NCCc2ccncc2)cn1Cc1ccc(C#N)cc1` [Example 1.45], 7.6 nM.

`Cc1c(-c2cccc(C(F)(F)F)c2)c(=O)c(C(=O)NCc2cccnc2)cn1Cc1ccc(C#N)cc1` [Example 1.46]: half-maximal inhibition (IC50) required 5.9 nM.

Take `Cc1c(-c2cccc(C(F)(F)F)c2)c(=O)c(C(=O)NCC2CCCO2)cn1Cc1ccc(C#N)cc1` (stereo not drawn) [Example 1.47]: the midpoint of inhibition, the IC50, lay at 22 nM. The same measure, in the same setting: with `Cc1c(-c2cccc(C(F)(F)F)c2)c(=O)c(C(=O)NCc2ccccn2)cn1Cc1ccc(C#N)cc1` [Example 1.48] the figure was 4.1 nM. Still for that read-out and setting: the value for `Cc1c(-c2cccc(C(F)(F)F)c2)c(=O)c(C(=O)NCCN2CCOCC2)cn1Cc1ccc(C#N)cc1` [Example 1.49] was 10.4 nM. Still for that read-out and setting: the value for `Cc1c(-c2cccc(C(F)(F)F)c2)c(=O)c(C(=O)NCc2ccncc2)cn1Cc1ccc(C#N)cc1` [Example 1.50] was 1.4 nM; that for `CCNC(=O)c1cn(Cc2ccc(C#N)cc2)c(C)c(-c2cccc(C(F)(F)F)c2)c1=O` [Example 1.51] was 10.7 nM; that for `Cc1c(-c2cccc(C(F)(F)F)c2)c(=O)c(C(N)=O)cn1Cc1ccc(C#N)cc1` [Example 1.52] was 9.6 nM. The compound `Cc1c(-c2cccc(C(F)(F)F)c2)c(=O)c(C(=O)N[C@H]2CCC(=O)NC2)cn1Cc1ccc(C#N)cc1` [Example 1.53] registered a half-inhibitory concentration (IC50) of 9 nM. Same read-out and setting: the value for `Cc1c(-c2cccc(C(F)(F)F)c2)c(=O)c(C(=O)NCC(=O)N2CCCC2)cn1Cc1ccc(C#N)cc1` [Example 1.54] was 41.5 nM; that for `Cc1c(-c2cccc(C(F)(F)F)c2)c(=O)c(C(=O)NC2CCCNC2=O)cn1Cc1ccc(C#N)cc1` (stereo not drawn) [Example 1.55] was 4.9 nM. Same read-out and setting: the value for `COc1ccc(CNC(=O)c2cn(Cc3ccc(C#N)cc3)c(C)c(-c3cccc(C(F)(F)F)c3)c2=O)cn1` [Example 1.56] was 4.6 nM; that for `Cc1c(-c2cccc(C(F)(F)F)c2)c(=O)c(C(=O)NC2CCN(C)C2=O)cn1Cc1ccc(C#N)cc1` (stereo not drawn) [Example 1.57] was 6.8 nM.

Take `Cc1c(-c2cccc(C(F)(F)F)c2)c(=O)c(C(=O)N[C@H]2CCNC2=O)cn1Cc1ccc(C#N)cc1` [Example 1.58]: the half-maximal inhibitory concentration (IC50) was determined as 8.1 nM.

`Cc1c(-c2cccc(C(F)(F)F)c2)c(=O)c(C(=O)N[C@@H]2CCNC2=O)cn1Cc1ccc(C#N)cc1` [Example 1.59] returned an IC50 of 10.5 nM.

Compound `Cc1nc(CNC(=O)c2cn(Cc3ccc(C#N)cc3)c(C)c(-c3cccc(C(F)(F)F)c3)c2=O)no1` [Example 1.60] gave an IC50 of 13.3 nM. The compound `Cc1c(-c2cccc(C(F)(F)F)c2)c(=O)c(C(=O)NC2CC(=O)N(C)C2)cn1Cc1ccc(C#N)cc1` (stereo not drawn) [Example 1.61] registered a half-inhibitory concentration (IC50) of 11.4 nM. Same read-out and setting: with `Cc1c(-c2cccc(C(F)(F)F)c2)c(=O)c(C(=O)NC2CCC(=O)N(C)C2)cn1Cc1ccc(C#N)cc1` (stereo not drawn) [Example 1.62] the figure was 10.4 nM; with `COC(=O)CNC(=O)c1cn(Cc2ccc(C#N)cc2)c(C)c(-c2cccc(C(F)(F)F)c2)c1=O` [Example 1.63], 22.5 nM; with `Cc1c(-c2cccc(C(F)(F)F)c2)c(=O)c(C(=O)NC2CCS(=O)(=O)C2)cn1Cc1ccc(C#N)cc1` (stereo not drawn) [Example 1.64], 17.2 nM.

As for `Cc1c(-c2cccc(C(F)(F)F)c2)c(=O)c(C(=O)NCC(=O)N(C)C)cn1Cc1ccc(C#N)cc1` [Example 1.65], the half-inhibitory concentration (IC50) was found to be 38.5 nM. The compound `Cc1c(-c2cccc(C(F)(F)F)c2)c(=O)c(C(=O)NCCS(C)(=O)=O)cn1Cc1ccc(C#N)cc1` [Example 1.66] registered an IC50 of 6.2 nM. The same measure, in the same setting: the value for `Cc1noc(CNC(=O)c2cn(Cc3ccc(C#N)cc3)c(C)c(-c3cccc(C(F)(F)F)c3)c2=O)n1` [Example 1.67] was 6.5 nM; that for `Cc1c(-c2cccc(C(F)(F)F)c2)c(=O)c(C(=O)NCc2ccc(S(C)(=O)=O)cc2)cn1Cc1ccccc1` [Example 2.1, 1-Benzyl-6-methyl-4-oxo-5-(3-trifluoromethyl-phenyl)-1,4-dihydro-pyridine-3-carboxylic acid 4-methanesulfonyl-benzylamide] was 55.3 nM; that for `Cc1c(-c2cccc(C(F)(F)F)c2)c(=O)c(C(=O)NCc2ccc(S(C)(=O)=O)cc2)cn1Cc1ccc(F)cc1` [Example 2.2] was 1.9 nM. On the same count and under the same terms, with `Cc1c(-c2cccc(C(F)(F)F)c2)c(=O)c(C(=O)NCc2ccc(S(C)(=O)=O)cc2)cn1Cc1ccc(C#N)cn1` [Example 2.3] the figure was less than 1 nM; with `Cc1c(-c2cccc(C(F)(F)F)c2)c(=O)c(C(=O)NCc2ccc(S(C)(=O)=O)cc2)cn1Cc1ccc(C#N)nc1` [Example 2.4], 1.4 nM. With `Cc1c(-c2cccc(C(F)(F)F)c2)c(=O)c(C(=O)NCc2ccc(S(C)(=O)=O)cc2)cn1[C@H](C)c1ccc(C#N)cc1` [Example 2.5A], the IC50 was less than 1 nM. In addition, the “neutrophil elastase inhibitory potency, one enantiomer compared with the other” value (eutomer versus distomer of the racemic example) is recorded as “much more active”. For the compound `COc1cc(C#N)ccc1Cn1cc(C(=O)NCc2ccc(S(C)(=O)=O)cc2)c(=O)c(-c2cccc(C(F)(F)F)c2)c1C` [Example 2.6], the 50% inhibitory concentration (IC50) came out at 1.6 nM.

As for `Cc1c(-c2cccc(C(F)(F)F)c2)c(=O)c(C(=O)NCc2ccc(S(C)(=O)=O)cc2)cn1Cc1ccc(Cl)cc1` [Example 2.7], the 50% inhibitory concentration (IC50) turned out to be 6.9 nM. For `Cc1c(-c2cccc(C(F)(F)F)c2)c(=O)c(C(=O)NCc2ccc(S(C)(=O)=O)cc2)cn1Cc1ccc(C#N)cc1F` [Example 2.8], the IC50 is less than 1 nM. The same measure, in the same setting: with `Cc1c(-c2cccc(C(F)(F)F)c2)c(=O)c(C(=O)NCc2ccc(S(C)(=O)=O)cc2)cn1Cc1ccc(C#N)c(F)c1` [Example 2.9] the figure was less than 1 nM.

`Cc1c(-c2cccc(C(F)(F)F)c2)c(=O)c(C(=O)NCc2ccc(S(C)(=O)=O)cc2)cn1Cc1cccc(C#N)c1` [Example 2.10] had an IC50 of 83.8 nM. The same measure, in the same setting: the value for `Cc1c(-c2cccc(C(F)(F)F)c2)c(=O)c(C(=O)NCc2ccc(S(C)(=O)=O)cc2)cn1Cc1ccncc1` [Example 2.11] was 38.9 nM; that for `Cc1c(-c2cccc(C(F)(F)F)c2)c(=O)c(C(=O)NCc2ccc(S(C)(=O)=O)cc2)cn1Cc1ccc(C#N)cc1` [Example 2.12] was less than 1 nM. Same read-out and setting: with `CNC(=O)c1cn(Cc2ccc(C#N)nc2)c(C)c(-c2cccc(C(F)(F)F)c2)c1=O` [Example 3.2] the figure was 53.7 nM; with `CNC(=O)c1cn(Cc2ccc(F)cc2)c(C)c(-c2cccc(C(F)(F)F)c2)c1=O` [Example 3.3], 51 nM; with `CNC(=O)c1cn(Cc2ccc(Cl)cc2)c(C)c(-c2cccc(C(F)(F)F)c2)c1=O` [Example 3.4], 29.1 nM. Turning to `CNC(=O)c1cn(Cc2ccc(C#N)c(F)c2)c(C)c(-c2cccc(C(F)(F)F)c2)c1=O` [Example 3.5], the IC50 was found to be 19.3 nM. On the same count and under the same terms, with `CNC(=O)c1cn(Cc2ccc(C#N)cc2F)c(C)c(-c2cccc(C(F)(F)F)c2)c1=O` [Example 3.6] the figure was 20.3 nM; with `CNC(=O)c1cn(Cc2ccc(C#N)cc2OC)c(C)c(-c2cccc(C(F)(F)F)c2)c1=O` [Example 3.7], 26.4 nM. The same measure, in the same setting: with `Cc1c(-c2cccc(C(F)(F)F)c2)c(=O)c(C(=O)NCc2ccc(S(C)(=O)=O)cn2)cn1Cc1ccc(C#N)cc1` [Example 4.1, 1-(4-cyano-benzyl)-6-methyl-4-oxo-5-(3-trifluoromethyl-phenyl)-1,4-dihydro-pyridine-3-carboxylic acid (5-methanesulfonyl-pyridin-2-ylmethyl)-amide] the figure was less than 1 nM. Turning to `Cc1c(-c2cccc(C(F)(F)F)c2)c(=O)c(C(=O)NCc2ccc(S(C)(=O)=O)cn2)cn1Cc1ccc(Cl)cc1` [Example 4.2], the IC50 is 2.1 nM.

On to `Cc1c(-c2cccc(C(F)(F)F)c2)c(=O)c(C(=O)NCc2ccc(S(C)(=O)=O)cn2)cn1Cc1ccncc1` [Example 4.3], for which half-maximal inhibition (IC50) required 58 nM. `Cc1c(-c2cccc(C(F)(F)F)c2)c(=O)c(C(=O)NCc2ccc(S(C)(=O)=O)cn2)cn1Cc1cccc(C#N)c1` [Example 4.4] returned a half-inhibitory concentration (IC50) of 63.8 nM. The same measure, in the same setting: the value for `Cc1c(-c2cccc(C(F)(F)F)c2)c(=O)c(C(=O)NCc2ccc(S(C)(=O)=O)cn2)cn1Cc1ccc(C#N)c(F)c1` [Example 4.5] was 1 nM; that for `COc1cc(C#N)ccc1Cn1cc(C(=O)NCc2ccc(S(C)(=O)=O)cn2)c(=O)c(-c2cccc(C(F)(F)F)c2)c1C` [Example 4.7] was less than 1 nM. Same read-out and setting: the value for `Cc1c(-c2cccc(C(F)(F)F)c2)c(=O)c(C(=O)NCc2ccc(S(C)(=O)=O)cn2)cn1Cc1ccc(C#N)nc1` [Example 4.8] was 1.4 nM. Still for that read-out and setting: the value for `Cc1c(-c2cccc(C(F)(F)F)c2)c(=O)c(C(=O)NCc2ccc(S(C)(=O)=O)cn2)cn1Cc1ccc(C#N)cc1F` [Example 4.9] was less than 1 nM; that for `Cc1c(-c2cccc(C(F)(F)F)c2)c(=O)c(C(=O)NCc2ccc(S(C)(=O)=O)cn2)cn1C(C)c1ccc(C#N)cc1` (stereo not drawn) [Example 4.10] was less than 1 nM.
